From US20100137315A1, “Sphingosine Kinase Inhibitors and Methods of Their Use” (APOGEE BIOTECHNOLOGY CORPORATION, priority 2005, published 2010)
Read-outs that look alike come from different tables or passages of the source.

Experiments:
[1] = tested on: MCF-7 human breast adenocarcinoma cells; assay: Cytotoxicity, SRB assay, 48 h; format: cell-based; details: Table 6, 48 h, SRB, inhibition of cell proliferation, read-out: MCF-7 IC50
Procedure: To further assess the biological efficacies of the Compounds in intact cells, each Compound was evaluated for cytotoxicity using human cancer cell lines. These experiments followed methods that have been extensively used. Cell lines tested included MCF-7 human breast adenocarcinoma cells. The indicated cell lines were treated with varying doses of the test Compound for 48 h. Cell survival was then determined using the SRB binding assay (Skehan et al., 1990, J Natl Cancer Inst 82: 1107), and the concentration of compound that inhibited proliferation by 50% (the IC50) was calculated. Values (in μM) represent the mean±sd for replicate trials.

recombinant human SK = target: T1, recombinant human SK (Homo sapiens, UniProt Q9NYA1); assay: Inhibition of recombinant human SK, LC/MS/MS assay; format: biochemical; details: 6 μg/ml compound
T1 construct: glutathione-S-transferase (GST) (N); made in house; host or cells: bacteria (pGEX vector)
Procedure: An assay for identifying inhibitors of recombinant human SK has been established (French et al., 2003, Cancer Res 63: 5962). cDNA for human SK was subcloned into a pGEX bacterial expression vector, which results in expression of the enzyme as a fusion protein with glutathione-S-transferase, and the fusion protein is then purified on a column of immobilized glutathione. SK activity is measured by incubation of the recombinant SK with [^3H]sphingosine and 1 mM ATP under defined conditions, followed by extraction of the assay mixture with chloroform:methanol under basic conditions. […] Radioactivity in aliquots of the aqueous phase is then quantified as a measure of [^3H]S1P formation. There is a low background level of partitioning of [^3H]sphingosine into the aqueous phase, and addition of the recombinant SK greatly increases the formation of [^3H]S1P.
In an alternate assay procedure, the recombinant human SK was incubated with unlabeled sphingosine and ATP as described above. After 30 minutes, the reactions were terminated by the addition of acetonitrile to directly extract the newly synthesized S1P. The amount of S1P in the samples is then quantified as follows. C17 base D-erythro-sphingosine and C17 S1P are used as internal standards for sphingosine and S1P, respectively. These seventeen-carbon fatty acid-linked sphingolipids are not naturally produced, making these analogs excellent standards. The lipids are then fractionation by High-Performance Liquid Chromatography using a C8-reverse phase column eluted with 1 mM methanolic ammonium formate/2 mM aqueous ammonium formate. A Finnigan LCQ Classic LC-MS/MS is used in the multiple reaction monitoring positive ionization mode to acquire ions at m/z of 300 (precursor ion)→282 (product ion) for sphingosine and 380→264 for S1P. Calibration curves are generated by plotting the peak area ratios of the synthetic standards for each sphingolipid, and used to determine the normalized amounts of sphingosine and S1P in the samples.
Each Compound of this invention was tested for its ability to inhibit recombinant SK using the LC/MS/MS assay described above. Typically, the Compounds were individually dissolved in dimethylsulfoxide and tested at a final concentration of 6 micrograms/ml.

T1 sequence (Q9NYA1 whole entry): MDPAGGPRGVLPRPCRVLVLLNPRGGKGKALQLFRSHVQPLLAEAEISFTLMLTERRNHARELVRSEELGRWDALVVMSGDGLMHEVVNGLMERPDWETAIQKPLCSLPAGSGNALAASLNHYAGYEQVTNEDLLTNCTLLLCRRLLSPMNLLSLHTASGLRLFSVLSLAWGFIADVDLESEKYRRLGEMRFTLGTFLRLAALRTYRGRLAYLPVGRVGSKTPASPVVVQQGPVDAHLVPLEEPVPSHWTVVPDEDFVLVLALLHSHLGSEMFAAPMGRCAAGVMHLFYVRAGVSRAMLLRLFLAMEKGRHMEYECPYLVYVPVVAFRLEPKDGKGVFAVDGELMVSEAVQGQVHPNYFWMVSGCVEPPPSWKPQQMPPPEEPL

Row | Compound | inhibition at 6 µg/mL (recombinant human SK) [%] | IC50 [1] [µM] | IC50 ([1]; Homo sapiens, MCF7) [µM]
1 | 4-(4-Chloro-phenyl)-thiazole-2-carboxylic acid (2-pyridin-4-yl)-amide [Compound 74] |  | 120 | 
2 | CCCCCCCCCCCCCC(=O)Nc1nc(-c2ccc(Cl)cc2)cs1 [Compound 2, Tetradecanoic acid [4-(4-chloro-phenyl)-thiazol-2-yl]-amide] | 30 |  | 1.9
3 | CCCCCCCCC=CCCCCCCCC(=O)Nc1nc(-c2ccc(Cl)cc2)cs1 [Compound 6, Octadec-9-enoic acid [4-(4-chloro-phenyl)-thiazol-2-yl]-amide] | 0 |  | 105
4 | COc1cc(C=CC(=O)Nc2nc(-c3cccc(Cl)c3)cs2)ccc1O [Compound 9, N-[4-(3-Chloro-phenyl)-thiazol-2-yl]-3-(4-hydroxy-3-methoxy-phenyl)-acrylamide] |  |  | 7.8
5 | CCCC(=O)Oc1ccc(C=CC(=O)Nc2nc(-c3ccc(Cl)cc3)cs2)cc1OC(=O)CCC [Compound 11, Butyric acid 2-butyryloxy-5-{2-[4-(4-chloro-phenyl)-thiazol-2-ylcarbamoyl]-vinyl}-phenyl ester] |  |  | 10
6 | CC(=O)Oc1ccc(C=CC(=O)Nc2nc(-c3ccc(Cl)cc3)cs2)cc1 [Compound 12, Acetic acid 4-{2-[4-(4-chloro-phenyl)-thiazol-2-ylcarbamoyl]-vinyl}-phenyl ester] |  |  | 125
7 | CCCC(=O)Oc1ccc(CC(=O)Nc2nc(-c3ccc(Cl)cc3)cs2)cc1OC [Compound 16, Butyric acid 4-{[4-(4-chloro-phenyl)-thiazol-2-ylcarbamoyl]-methyl}-2-methoxy-phenyl ester] |  |  | 5.6
8 | CCCC(=O)Oc1ccc(CC(=O)Nc2nc(-c3ccc(Cl)cc3)cs2)cc1OC(=O)CCC [Compound 17, Butyric acid 2-butyryloxy-5-{[4-(4-chloro-phenyl)-thiazol-2-ylcarbamoyl]-methyl}-phenyl ester] |  |  | 4
9 | CCCC(=O)Oc1cc(C=CC(=O)Nc2nc(-c3ccc(Cl)cc3)cs2)ccc1OC [Compound 18, Butyric acid 5-{2-[4-(4-chloro-phenyl)-thiazol-2-ylcarbamoyl]-vinyl}-2-methoxy-phenyl ester] |  |  | 2.7
10 | O=C(Nc1nnn[nH]1)c1nc(-c2ccc(Cl)cc2)cs1 [Compound 62, 4-(4-Chloro-phenyl)-thiazole-2-carboxylic Acid (1H-tetrazol-5-yl)-amide] | 60 |  | 
11 | O=C(NCCc1ccc2c(c1)OCO2)c1nc(-c2ccc(Cl)cc2)cs1 [Compound 64, 4-(4-Chloro-phenyl)-thiazole-2-carboxylic Acid (2-benzo[1,3]dioxol-5-yl-ethyl)-amide] | 90 |  | 
12 | O=C(NCc1cc(F)cc(C(F)(F)F)c1)c1nc(-c2ccc(Cl)cc2)cs1 [Compound 75, 4-(4-Chloro-phenyl)-thiazole-2-carboxylic acid 3-fluoro-5-trifluoromethyl-benzylamide] | 3 |  | 
13 | O=C(NCCN1CCOCC1)c1nc(-c2ccc(Cl)cc2)cs1 [Compound 76, 4-(4-Chloro-phenyl)-thiazole-2-carboxylic acid (2-morpholin-4-yl-ethyl)-amide] | 51 |  | 
14 | Fc1cc(F)cc(OCNc2nc(-c3ccc(Cl)cc3)cs2)c1 [Compound 77, [4-(4-Chloro-phenyl)-thiazol-2-yl]-(3,5-difluoro-phenoxymethyl)-amine] | 85 |  | 
15 | O=C(Nc1nc2cc(Cl)ccc2o1)c1ccccc1[N+](=O)[O-] [Compound 87, N-(5-Chloro-benzooxazol-2-yl)-2-nitro-benzamide] |  |  | 9.8
16 | O=C(C=Cc1ccccc1)Nc1nc2cc(Cl)ccc2o1 [Compound 88, N-(5-Chloro-benzooxazol-2-yl)-3-phenyl-acrylamide] |  |  | 1.3
17 | O=C(C=Cc1ccc([N+](=O)[O-])cc1)Nc1nc2cc(Cl)ccc2o1 [Compound 89, N-(5-Chloro-benzooxazol-2-yl)-3-(4-nitro-phenyl)-acrylamide] |  |  | 1.2
18 | C=CCCCCCCCCC(=O)Nc1nc2cc(Cl)ccc2o1 [Compound 90, Undec-10-enoic acid (5-chloro-benzooxazol-2-yl)-amide] |  |  | 19
19 | CCCCCCCCCCCCCC(=O)Nc1nc2cc(Cl)ccc2o1 [Compound 91, Tetradecanoic Acid (5-chloro-benzooxazol-2-yl)-amide] |  |  | 2.6
20 | CCCCCCCCCCCCCCCC(=O)Nc1nc2cc(Cl)ccc2o1 [Compound 92, Hexadecanoic Acid (5-chloro-benzooxazol-2-yl)-amide] |  |  | 7.6
21 | O=C(Nc1nc2cc(Cl)ccc2s1)c1ccccc1O [Compound 96, N-(5-Chloro-benzothiazol-2-yl)-2-hydroxy-benzamide] |  |  | 24

Now from value to compound, other results behind:

Row | inhibition at 6 µg/mL (recombinant human SK) [%] | Compound | IC50 [1] [µM] | IC50 ([1]; Homo sapiens, MCF7) [µM]
22 | 53 | C=CCCCCCCCCC(=O)Nc1nc(-c2ccc(Cl)cc2)cs1 [Compound 4, Undec-10-enoic acid [4-(4-chloro-phenyl)-thiazol-2-yl]-amide] |  | 33
23 | 0 | O=C(C=Cc1ccc([N+](=O)[O-])cc1)Nc1nc(-c2ccc(Cl)cc2)cs1 [Compound 5, N-[4-(4-Chloro-phenyl)-thiazol-2-yl]-3-(4-nitro-phenyl)-acrylamide] |  | 16
24 | 71 | O=C(C=Cc1ccccc1)Nc1nc(-c2ccc(Cl)cc2)cs1 [Compound 7, N-[4-(4-Chloro-phenyl)-thiazol-2-yl]-3-phenyl-acrylamide] |  | 18
25 | 100 | COc1cc(C=CC(=O)Nc2nc(-c3ccc(Cl)cc3)cs2)ccc1OC(C)=O [Compound 10, Acetic acid 4-{2-[4-(4-chloro-phenyl)-thiazol-2-ylcarbamoyl]-vinyl}-2-methoxy-phenyl ester] |  | 24
26 | 0 | CCCC(=O)Oc1ccccc1C=CC(=O)Nc1nc(-c2ccc(Cl)cc2)cs1 [Compound 13, Butyric acid 2-{2-[4-(4-chloro-phenyl)-thiazol-2-ylcarbamoyl]-vinyl}-phenyl ester] |  | 2.3
27 | 0 | CCCC(=O)Oc1cccc(C=CC(=O)Nc2nc(-c3ccc(Cl)cc3)cs2)c1 [Compound 14, Butyric acid 3-{2-[4-(4-chloro-phenyl)-thiazol-2-ylcarbamoyl]-vinyl}-phenyl ester] |  | 2.9
28 | 3 | CS(=O)(=O)c1ccc(CNC(=O)c2nc(-c3ccc(Cl)cc3)cs2)cc1 [Compound 63, 4-(4-Chloro-phenyl)-thiazole-2-carboxylic Acid 4-methanesulfonyl-benzylamide] |  | 
29 | 66 | O=C(Nc1nc(-c2ccc(Cl)cc2)cs1)c1cccc(F)c1 [Compound 65, N-[4-(4-Chloro-phenyl)-thiazol-2-yl]-3-fluoro-benzamide] |  | 
30 | 61 | O=C(Nc1nc(-c2ccc(Cl)cc2)cs1)c1ccc(C(F)(F)F)cc1F [Compound 66, N-[4-(4-Chloro-phenyl)-thiazol-2-yl]-2-fluoro-4-trifluoromethyl-benzamide] |  | 
31 | 41 | O=C(Nc1nc(-c2ccc(Cl)cc2)cs1)c1ccc(F)cc1 [Compound 67, N-[4-(4-Chloro-phenyl)-thiazol-2-yl]-4-fluoro-benzamide] |  | 
32 | 73 | O=C(Nc1nc(-c2ccc(Cl)cc2)cs1)c1ccc(Cl)cc1Cl [Compound 68, 2,4-Dichloro-N-[4-(4-chloro-phenyl)-thiazol-2-yl]-benzamide] |  | 
33 | 55 | O=C(Nc1nc(-c2ccc(Cl)cc2)cs1)C(Cl)c1ccccc1 (centres unmarked) [Compound 69, 2-Chloro-N-[4-(4-chloro-phenyl)-thiazol-2-yl]-2-phenyl-acetamide] |  | 
34 | 54 | O=C(Cc1ccc(F)cc1)Nc1nc(-c2ccc(Cl)cc2)cs1 [Compound 70, N-[4-(4-Chloro-phenyl)-thiazol-2-yl]-2-(4-fluoro-phenyl)-acetamide] |  | 
35 | 70 | Fc1ccc(F)c(OCNc2nc(-c3ccc(Cl)cc3)cs2)c1 [Compound 78, [4-(4-Chloro-phenyl)-thiazol-2-yl]-(2,5-difluoro-phenoxymethyl)-amine] |  | 
36 | 53 | Fc1cc(F)cc(COCNc2nc(-c3ccc(Cl)cc3)cs2)c1 [Compound 79, [4-(4-Chloro-phenyl)-thiazol-2-yl]-(3,5-difluoro-benzyloxymethyl)-amine] |  | 
